Target: T1, Estrogen receptor (Homo sapiens, UniProt P03372)
T1 sequence (P03372 whole entry): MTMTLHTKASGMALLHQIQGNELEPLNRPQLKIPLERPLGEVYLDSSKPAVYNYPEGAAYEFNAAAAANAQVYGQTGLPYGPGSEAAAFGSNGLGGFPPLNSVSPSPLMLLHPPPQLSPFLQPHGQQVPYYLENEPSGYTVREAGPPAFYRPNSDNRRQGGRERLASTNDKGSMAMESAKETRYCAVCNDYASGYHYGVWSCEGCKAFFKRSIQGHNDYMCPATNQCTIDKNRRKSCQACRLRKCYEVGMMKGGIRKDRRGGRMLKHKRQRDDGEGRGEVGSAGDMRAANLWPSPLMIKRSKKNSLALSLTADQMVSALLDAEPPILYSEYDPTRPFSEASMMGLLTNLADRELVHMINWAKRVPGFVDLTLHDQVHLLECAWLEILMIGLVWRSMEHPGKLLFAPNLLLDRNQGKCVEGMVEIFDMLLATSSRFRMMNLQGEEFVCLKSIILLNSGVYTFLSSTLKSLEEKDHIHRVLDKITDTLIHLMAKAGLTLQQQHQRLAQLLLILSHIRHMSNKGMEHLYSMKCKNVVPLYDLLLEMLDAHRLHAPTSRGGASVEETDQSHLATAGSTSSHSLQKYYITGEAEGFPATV
Assay: Inhibition of estrogen receptor

Row | IC50 [µM] | SMILES
1 | > 10 | CCCC1=C(C(=O)OCC)[C@H](c2ccnc3ccccc23)C(C#N)C(C)=N1 (stereo partly drawn) [(R)-Ethyl 5-Cyano-6-methyl-2-propyl-4-quinolin-4-yl-1,4-dihydropyridine-3-carboxylate]
2 | > 10 | CC1=NC(C)=C(C(=O)OC(C)(C)C)[C@H](c2ccc(F)cc2Cl)C1C#N (stereo partly drawn) [tert-Butyl (4R)-4-(2-Chloro-4-fluorophenyl)-5-cyano-2,6-dimethyl-1,4-dihydropyridine-3-carboxylate]

Reference: BindingDB's records for doi:10.1021/jm1002827 (Pfizer, 2010)
